Assay results published in ChEMBL document CHEMBL2029272, “7-Azabicyclo[2.2.1]heptane as a scaffold for the development of selective sigma-2 (σ2) receptor ligands” (Bioorg Med Chem Lett, 2012).

Tests used:
[1] = Displacement of [3H]DTG from sigma2 receptor in […]; format: cell-based; conditions: pc-12
D(2) dopamine receptor = D(2) dopamine receptor (Homo sapiens, UniProt P14416); test: Inhibition of D2 dopamine receptor
[2] = target: T1, Sodium-dependent dopamine transporter (Homo sapiens, UniProt Q01959); test: Inhibition of DAT
T1 sequence (Q01959 whole entry): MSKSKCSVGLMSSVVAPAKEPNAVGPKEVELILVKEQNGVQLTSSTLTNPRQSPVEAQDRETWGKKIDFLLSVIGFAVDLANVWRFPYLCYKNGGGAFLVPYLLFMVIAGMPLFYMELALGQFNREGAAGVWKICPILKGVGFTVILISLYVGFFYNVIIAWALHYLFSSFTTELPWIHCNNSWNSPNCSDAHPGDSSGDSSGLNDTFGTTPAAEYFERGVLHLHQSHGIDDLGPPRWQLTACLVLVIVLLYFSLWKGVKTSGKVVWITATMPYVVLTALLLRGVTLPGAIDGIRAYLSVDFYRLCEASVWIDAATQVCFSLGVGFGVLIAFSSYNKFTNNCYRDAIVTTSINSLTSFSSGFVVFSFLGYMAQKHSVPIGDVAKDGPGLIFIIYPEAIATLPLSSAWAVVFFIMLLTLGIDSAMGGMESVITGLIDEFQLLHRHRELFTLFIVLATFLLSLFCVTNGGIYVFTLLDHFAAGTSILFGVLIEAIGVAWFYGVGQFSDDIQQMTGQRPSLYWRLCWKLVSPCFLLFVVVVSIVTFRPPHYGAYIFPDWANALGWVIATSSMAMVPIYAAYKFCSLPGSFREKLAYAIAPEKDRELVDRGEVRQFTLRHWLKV

[3] = target: Sodium-dependent serotonin transporter (Homo sapiens, UniProt P31645); test: Inhibition of SERT
Sequence of Sodium-dependent serotonin transporter (P31645 whole entry): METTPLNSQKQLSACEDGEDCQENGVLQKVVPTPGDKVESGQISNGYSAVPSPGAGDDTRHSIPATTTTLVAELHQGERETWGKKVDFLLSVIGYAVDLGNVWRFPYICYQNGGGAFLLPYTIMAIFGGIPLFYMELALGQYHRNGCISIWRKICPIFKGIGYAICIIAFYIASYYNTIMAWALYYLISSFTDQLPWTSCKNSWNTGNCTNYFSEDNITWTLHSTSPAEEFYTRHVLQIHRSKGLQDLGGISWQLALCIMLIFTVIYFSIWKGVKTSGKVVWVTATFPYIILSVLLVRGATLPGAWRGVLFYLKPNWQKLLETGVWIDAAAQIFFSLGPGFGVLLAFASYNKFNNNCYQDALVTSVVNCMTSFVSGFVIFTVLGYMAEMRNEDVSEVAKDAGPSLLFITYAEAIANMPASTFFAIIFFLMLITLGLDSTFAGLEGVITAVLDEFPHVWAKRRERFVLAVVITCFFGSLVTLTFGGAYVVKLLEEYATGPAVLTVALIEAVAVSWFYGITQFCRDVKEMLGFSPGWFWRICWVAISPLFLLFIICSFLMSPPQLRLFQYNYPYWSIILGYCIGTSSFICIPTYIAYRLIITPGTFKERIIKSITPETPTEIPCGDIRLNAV

[4] = Inhibition of NMDA receptor PCP binding site at 10 uM
[5] = target: Sodium-dependent noradrenaline transporter (Homo sapiens) (UniProt P23975); test: Inhibition of NET at 10 uM
Sequence of Sodium-dependent noradrenaline transporter (Homo sapiens) (P23975 whole entry): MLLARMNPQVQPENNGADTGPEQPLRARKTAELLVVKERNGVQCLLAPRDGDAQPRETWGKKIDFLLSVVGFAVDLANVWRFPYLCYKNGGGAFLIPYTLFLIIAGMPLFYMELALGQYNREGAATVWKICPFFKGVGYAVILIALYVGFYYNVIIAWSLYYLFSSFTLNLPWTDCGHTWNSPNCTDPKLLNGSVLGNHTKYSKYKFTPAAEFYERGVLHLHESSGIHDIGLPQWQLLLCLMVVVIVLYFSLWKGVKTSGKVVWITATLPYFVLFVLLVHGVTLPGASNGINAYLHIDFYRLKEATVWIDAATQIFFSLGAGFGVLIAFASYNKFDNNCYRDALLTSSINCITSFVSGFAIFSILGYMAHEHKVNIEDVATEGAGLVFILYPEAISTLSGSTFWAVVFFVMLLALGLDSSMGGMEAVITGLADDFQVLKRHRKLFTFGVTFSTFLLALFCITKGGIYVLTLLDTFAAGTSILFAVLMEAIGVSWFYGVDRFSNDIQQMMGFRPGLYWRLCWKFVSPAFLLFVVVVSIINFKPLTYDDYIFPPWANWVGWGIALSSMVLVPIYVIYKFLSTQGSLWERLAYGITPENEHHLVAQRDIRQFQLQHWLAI

[6] = target: Sigma non-opioid intracellular receptor 1 (Rattus norvegicus, UniProt Q9R0C9); test: Displacement of [3H](+)-pentazocine from sigma1 receptor in rat brain homogenate; format: tissue-based
Sequence of Sigma non-opioid intracellular receptor 1 (Q9R0C9 whole entry): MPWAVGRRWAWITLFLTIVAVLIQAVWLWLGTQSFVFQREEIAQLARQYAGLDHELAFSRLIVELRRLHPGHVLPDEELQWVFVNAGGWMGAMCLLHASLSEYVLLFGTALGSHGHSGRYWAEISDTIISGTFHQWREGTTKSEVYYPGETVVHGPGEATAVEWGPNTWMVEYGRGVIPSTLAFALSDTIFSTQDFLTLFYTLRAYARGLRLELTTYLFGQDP

[7] = target: T1, Sodium-dependent dopamine transporter; test: Inhibition of DAT at 10 uM
Histamine H3 receptor [8] = target: T2, Histamine H3 receptor (Homo sapiens, UniProt Q9Y5N1); test: Inhibition of H3 receptor at 10 uM
T2 sequence (Q9Y5N1 whole entry): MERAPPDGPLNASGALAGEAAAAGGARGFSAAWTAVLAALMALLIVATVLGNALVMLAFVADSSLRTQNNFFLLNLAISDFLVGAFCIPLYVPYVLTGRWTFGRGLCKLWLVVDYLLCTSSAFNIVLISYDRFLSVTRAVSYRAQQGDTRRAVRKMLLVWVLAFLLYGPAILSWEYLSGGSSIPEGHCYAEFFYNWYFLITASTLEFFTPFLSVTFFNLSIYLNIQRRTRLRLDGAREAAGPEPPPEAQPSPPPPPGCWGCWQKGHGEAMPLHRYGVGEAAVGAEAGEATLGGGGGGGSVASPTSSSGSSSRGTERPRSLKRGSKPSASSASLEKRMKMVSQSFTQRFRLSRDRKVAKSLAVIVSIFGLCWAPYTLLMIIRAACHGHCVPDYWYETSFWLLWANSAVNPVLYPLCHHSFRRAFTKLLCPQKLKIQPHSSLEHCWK

D(1B) dopamine receptor = D(1B) dopamine receptor (Homo sapiens, UniProt P21918); test: Inhibition of D5 dopamine receptor at 10 uM
Sequence of D(1B) dopamine receptor (P21918 whole entry): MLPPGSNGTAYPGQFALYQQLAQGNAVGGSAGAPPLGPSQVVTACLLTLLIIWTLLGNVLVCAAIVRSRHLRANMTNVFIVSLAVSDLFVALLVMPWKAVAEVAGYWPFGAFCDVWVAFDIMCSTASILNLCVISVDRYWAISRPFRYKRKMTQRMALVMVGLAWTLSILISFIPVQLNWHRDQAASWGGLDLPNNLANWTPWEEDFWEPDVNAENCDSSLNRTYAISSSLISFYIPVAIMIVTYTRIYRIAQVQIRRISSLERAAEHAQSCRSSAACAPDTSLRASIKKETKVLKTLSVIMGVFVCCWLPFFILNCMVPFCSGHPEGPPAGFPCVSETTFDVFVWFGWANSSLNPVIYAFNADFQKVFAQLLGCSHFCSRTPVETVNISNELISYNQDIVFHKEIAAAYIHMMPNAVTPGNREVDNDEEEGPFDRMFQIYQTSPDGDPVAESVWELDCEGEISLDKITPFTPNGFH

Histamine H3 receptor [9] = target: T2, Histamine H3 receptor; test: Inhibition of H3 receptor
PC-12 = test: Displacement of [3H]DTG from sigma2 receptor in […] at 10 uM; format: cell-based

Sequence of D(2) dopamine receptor (P14416 whole entry): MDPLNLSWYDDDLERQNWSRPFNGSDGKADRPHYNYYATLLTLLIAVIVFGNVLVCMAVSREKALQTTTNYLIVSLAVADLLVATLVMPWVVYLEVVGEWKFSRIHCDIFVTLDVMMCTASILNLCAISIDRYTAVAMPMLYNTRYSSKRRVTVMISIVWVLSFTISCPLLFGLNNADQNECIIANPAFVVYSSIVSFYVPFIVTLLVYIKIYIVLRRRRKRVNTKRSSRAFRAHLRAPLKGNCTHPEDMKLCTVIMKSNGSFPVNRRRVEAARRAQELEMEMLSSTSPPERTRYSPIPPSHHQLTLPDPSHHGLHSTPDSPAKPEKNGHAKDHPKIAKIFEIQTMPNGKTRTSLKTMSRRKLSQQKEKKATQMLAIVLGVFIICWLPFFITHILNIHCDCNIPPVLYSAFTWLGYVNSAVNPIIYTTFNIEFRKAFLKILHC

inhibition (D(1B) dopamine receptor) [%] | SMILES | Ki [1] [nM] | Ki (D(2) dopamine receptor) [nM] | Ki [2] [nM] | Ki [3] [nM] | inhibition [4] [%] | inhibition [5] [%] | Ki [6] [nM] | inhibition [7] [%] | inhibition (Histamine H3 receptor [8]) [%] | Ki (Histamine H3 receptor [9]) [nM] | inhibition (PC-12) [%]
 | Fc1cccc(CCN2CCCC2)c1 | 246 | > 10000 | 2310 | > 10000 | < 50 | < 50 |  |  |  |  | 
 | c1ccc(CCN2C3CCC2CC3)nc1 | 517 | > 10000 |  |  | < 50 | < 50 | 3830 | < 50 | < 50 |  | 
< 50 | c1ccc(CN2CCCC2)cc1 | 852 |  |  | > 10000 | < 50 | < 50 |  | < 50 |  |  | 
 | COc1ccc(CN2C3CCC2CC3)cc1OC | 43.1 | > 10000 |  | > 10000 | < 50 | < 50 |  | < 50 | < 50 |  | 
 | c1ccc(CCN2C3CCC2CC3)cc1 | 131 | > 1000 |  |  | < 50 | < 50 | 276 | < 50 |  | 7770 | 
 | c1cncc(CN2CCCC2)c1 |  |  |  | > 10000 | < 50 | < 50 |  | < 50 |  |  | < 50
 | COc1ccc(CN2CCCC2)cc1OC | 661 |  |  | > 10000 | < 50 | < 50 |  | < 50 |  |  | 
 | c1ccc(CCN2CCCC2)cc1 | 658 |  | 2730 | > 10000 | < 50 | < 50 |  |  |  |  | 
 | Fc1cccc(CN2CCCC2)c1 | 1610 |  |  | > 10000 | < 50 | < 50 |  | < 50 |  |  | 
 | Fc1cccc(CCN2C3CCC2CC3)c1 | 29.5 | > 10000 |  |  | < 50 | < 50 | 103 | < 50 | < 50 |  | 
 | Fc1cccc(CCCN2C3CCC2CC3)c1 | 11.9 | > 10000 |  |  | < 50 | < 50 | 120 | < 50 | < 50 |  | 
 | c1ccc(CN2C3CCC2CC3)cc1 | 399 | > 10000 |  | > 10000 | < 50 | < 50 |  | < 50 |  |  | 
 | Fc1cccc(CN2C3CCC2CC3)c1 | 251 | > 10000 |  | > 10000 | < 50 | < 50 |  | < 50 | < 50 |  | 
 | c1cncc(CN2C3CCC2CC3)c1 | 6350 | > 10000 |  |  | < 50 | < 50 |  | < 50 | < 50 |  | 
 | Fc1cccc(CCCN2CCCC2)c1 | 39 | 9910 | 3310 | 4360 | < 50 | < 50 |  |  |  |  | 
 | c1ccc(CCN2CCCC2)nc1 | 3520 | > 10000 |  | > 10000 | < 50 | < 50 |  | < 50 |  |  | 
